Values quoted from earlier work as cited in patent US20160331796A1, “ENRICHED AMARANTHUS BLITOIDES COMPOSITIONS AND USES THEREOF” (priority 2010, published 2016).

Test system: prostate cancer cell lines, and primary prostate tumor lines

## Vitamin D
In vitro
  effect on invasion of prostate cancer cells: decrease invasion
Integrins associated with increased migration and invasion of prostate cancer cells in vitro
  expression of α6 and β4 integrins: decreased expression
Several tumor cell types, including prostate cancer cell lines and primary prostate tumor lines
  effect on proliferation and differentiation of tumor cell types: inhibit proliferation and promote differentiation
